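96-well plates; 48 h exposure; 5 concentrations. Endpoints by linear interpolation between flanking doses. Not reached: highest tested concentration assigned. At the GI50, growth is halved.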 Activity calls are given as the source filed them. Cut-off read from the data, not from the text of the source: active = GI50 up to about 1.1 µM and inactive = higher.
Key:
Test in all cases: DTP human tumour cell line panel, 48 h
LOX IMVI = system: LOX IMVI
EKVX = system: EKVX
NCI-H23 = system: NCI-H23
MDA-MB-435 = system: MDA-MB-435
HL-60 = system: HL-60
A549 = system: A549
M14 = system: M14
SK-MEL-2 = system: SK-MEL-2
MCF7 = system: MCF7
OVCAR-5 = system: OVCAR-5
SF-295 = system: SF-295
MOLT-4 = system: MOLT-4
SNB-75 = system: SNB-75
KM12 = system: KM12
UO-31 = system: UO-31
NCI-H460 = system: NCI-H460
RXF 393 = system: RXF 393
U-251 = system: U-251
Hs-578T = system: Hs-578T
TK-10 = system: TK-10

Measured: GI50

N#C/C=C\c1ccc(-c2cc(C(F)(F)F)cc(C(F)(F)F)c2)o1
inactive: LOX IMVI 38.7 µM | EKVX 34.1 µM | NCI-H23 13.3 µM | MDA-MB-435 2.57 µM | HL-60 17.7 µM | A549 91.6 µM | M14 56.4 µM | SK-MEL-2 15.6 µM | MCF7 71.8 µM | OVCAR-5 > 100 µM | SF-295 19.4 µM | MOLT-4 57.4 µM | SNB-75 18.7 µM | KM12 49 µM | UO-31 > 100 µM | NCI-H460 86.3 µM | RXF 393 44.6 µM | U-251 14.4 µM | Hs-578T 18.4 µM

Cc1ccc(/C=C2\N=C(N3CCCCC3)NC2=O)cc1
inactive: LOX IMVI 94.4 µM | EKVX > 100 µM | NCI-H23 > 100 µM | MDA-MB-435 > 100 µM | HL-60 71.1 µM | A549 > 100 µM | M14 > 100 µM | SK-MEL-2 > 100 µM | MCF7 > 100 µM | TK-10 > 100 µM | OVCAR-5 > 100 µM | SF-295 > 100 µM | MOLT-4 > 100 µM | KM12 > 100 µM | UO-31 > 100 µM | RXF 393 > 100 µM | U-251 > 100 µM | Hs-578T 70.8 µM

COc1ccccc1C(C1=C(O)COC1=O)c1cc2c(cc1OC(C)=O)OCO2 (stereo unspecified)
inactive: LOX IMVI > 100 µM | EKVX > 100 µM | NCI-H23 > 100 µM | MDA-MB-435 > 100 µM | HL-60 > 100 µM | A549 > 100 µM | M14 > 100 µM | MCF7 > 100 µM | TK-10 > 100 µM | OVCAR-5 > 100 µM | SF-295 > 100 µM | MOLT-4 > 100 µM | SNB-75 > 100 µM | KM12 > 100 µM | UO-31 > 100 µM | NCI-H460 > 100 µM | RXF 393 > 100 µM | U-251 > 100 µM | Hs-578T > 100 µM

Clc1ccc(-c2nc3cc(Cl)ccc3[nH]2)cc1
inactive: LOX IMVI 29.1 µM | EKVX 34.9 µM | NCI-H23 27.6 µM | MDA-MB-435 27.6 µM | HL-60 39.9 µM | A549 29.3 µM | M14 36.4 µM | SK-MEL-2 26.1 µM | MCF7 35.6 µM | TK-10 30.8 µM | SF-295 28.2 µM | MOLT-4 34.1 µM | SNB-75 40.1 µM | KM12 24 µM | UO-31 26.2 µM | NCI-H460 31.3 µM | RXF 393 > 100 µM | U-251 31.5 µM | Hs-578T 30.8 µM

O=C1/C(=C/c2ccccc2)N=C(c2ccccc2)N1n1c(-c2ccccc2)nc2ccccc2c1=O
inactive: LOX IMVI 35.6 µM | EKVX 48.6 µM | NCI-H23 56.1 µM | MDA-MB-435 87.9 µM | HL-60 33.3 µM | A549 47.6 µM | M14 > 100 µM | MCF7 34 µM | TK-10 > 100 µM | OVCAR-5 > 100 µM | SF-295 91 µM | MOLT-4 30.6 µM | SNB-75 > 100 µM | KM12 61.7 µM | UO-31 83.2 µM | NCI-H460 58.9 µM | RXF 393 86.5 µM | U-251 41.8 µM | Hs-578T 35.2 µM

O=C(Nc1nc(C23CC4CC(CC(C4)C2)C3)cs1)c1cc2cc(Cl)ccc2oc1=O
inactive: LOX IMVI > 100 µM | EKVX > 100 µM | NCI-H23 > 100 µM | MDA-MB-435 > 100 µM | HL-60 > 100 µM | A549 > 100 µM | MCF7 > 100 µM | TK-10 > 100 µM | OVCAR-5 > 100 µM | SF-295 > 100 µM | MOLT-4 > 100 µM | SNB-75 > 100 µM | KM12 > 100 µM | UO-31 > 100 µM | NCI-H460 > 100 µM | RXF 393 > 100 µM | U-251 > 100 µM | Hs-578T 71.1 µM

COc1cc(C)cc2c(-c3c(O)cc(O)c4c3C[C@H](C)N[C@H]4C)cc(-c3cc(-c4c(O)cc(O)c5c4C[C@H](C)N[C@H]5C)c4cc(C)cc(OC)c4c3O)c(O)c12
inactive: EKVX > 100 µM | NCI-H23 > 100 µM | MDA-MB-435 54.3 µM | HL-60 > 100 µM | A549 > 100 µM | M14 > 100 µM | SK-MEL-2 > 100 µM | MCF7 > 100 µM | TK-10 > 100 µM | OVCAR-5 21.4 µM | SF-295 66.4 µM | MOLT-4 > 100 µM | SNB-75 > 100 µM | KM12 56.2 µM | UO-31 > 100 µM | NCI-H460 75.3 µM | RXF 393 > 100 µM | U-251 > 100 µM | Hs-578T > 100 µM

Source: ChEMBL document CHEMBL1201862, “PubChem BioAssay data set” (2004)
